Our source for the EC50 values is patent publication US20250114338A1, “TETRAHYDRO-PYRIDO[3,4-b]INDOLE ESTROGEN RECEPTOR MODULATORS AND USES THEREOF” (Genentech, Inc., priority 2014, published 2025).

For the assay, the system named is ER-alpha MCF7. The experiment in a line: ER-alpha MCF7 HCS EC50; stated as measured by in vitro cell proliferation assays of Examples 902 and 903. Conditions: Homo sapiens, MCF7, MCF7 cells; Table 2. It is filed as cell-based. A digest of the protocol: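 MCF7 cells seeded 1000-2000 cells/well for 16 h, then treated with nine-point 1:2 DMSO dilution series in quadruplicate at 37 °C, 5% CO2 for 4 days. Viable cells quantified by CellTiter-Glo ATP luminescence; EC50 calculated. Controls: fulvestrant at final 100 nM, DMSO 0.2% v/v.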
On to `C[C@H]1Cc2c([nH]c3ccc(F)cc23)[C@H](c2c(F)cc(OC3CN(CCCF)C3)cc2F)N1CC(F)(F)F` [Example 357, (1S,3S)-1-(2,6-difluoro-4-((1-(3-fluoropropyl)azetidin-3-yl)oxy)phenyl)-6-fluoro-3-methyl-2-(2,2,2-trifluoroethyl)-2,3,4,9-tetrahydro-1H-pyrido[3,4-b]indole], for which the EC50 (as a rule, the concentration giving half of the maximal effect) was 26.1 nM.
`C[C@@H]1Cc2c([nH]c3ccccc23)[C@@H](c2c(F)cc(OCCN3CC(CF)C3)cc2F)N1C[C@@H](CO)C(F)(F)F` [Example 318, (S)-2-(((1R,3R)-1-(2,6-difluoro-4-(2-(3-(fluoromethyl)azetidin-1-yl)ethoxy)phenyl)-3-methyl-1,3,4,9-tetrahydro-2H-pyrido[3,4-b]indol-2-yl)methyl)-3,3,3-trifluoropropan-1-ol]: the EC50 came out at 1 nM.
On to `CC(C)(F)CN1[C@H](CF)Cc2c([nH]c3ccccc23)[C@H]1c1c(F)cc(OC2CN(CCCF)C2)cc1F` [Example 301, (1R,3S)-1-(2,6-difluoro-4-((1-(3-fluoropropyl)azetidin-3-yl)oxy)phenyl)-2-(2-fluoro-2-methylpropyl)-3-(fluoromethyl)-2,3,4,9-tetrahydro-1H-pyrido[3,4-b]indole], for which the EC50 was found to be 0.0881 nM.
As for `C[C@@H]1Cc2c([nH]c3ccccc23)[C@@H](c2ccc(OC3CN(CCCF)C3)cc2C#N)N1CC(C)(C)F` [Example 344, 2-[(1R,3R)-2-(2-fluoro-2-methyl-propyl)-3-methyl-1,3,4,9-tetrahydropyrido[3,4-b]indol-1-yl]-5-[1-(3-fluoropropyl)azetidin-3-yl]oxy-benzonitrile], the EC50 is 0.347 nM.
The value for `C[C@@H]1Cc2c([nH]c3ccccc23)[C@@H](c2c(F)cc(OC3CN(CCCF)C3)cc2F)N1C(=O)C1(F)CCC1` [Example 225, [(1R,3R)-1-[2,6-difluoro-4-[1-(3-fluoropropyl)azetidin-3-yl]oxy-phenyl]-3-methyl-1,3,4,9-tetrahydropyrido[3,4-b]indol-2-yl]-(1-fluorocyclobutyl)methanone] was 1 nM; that for `C[C@@H]1Cc2c([nH]c3ccccc23)[C@@H](c2c(F)cc(OC3CN(CCCF)C3)cc2F)N1C[C@H](C)C(=O)O` [Example 349, (S)-3-((1R,3R)-1-(2,6-difluoro-4-((1-(3-fluoropropyl)azetidin-3-yl)oxy)phenyl)-3-methyl-1,3,4,9-tetrahydro-2H-pyrido[3,4-b]indol-2-yl)-2-methylpropanoic acid] was 2.03 nM; that for `C[C@@H]1Cc2c([nH]c3ccccc23)[C@@H](c2c(F)cc(OCCN3CC(CF)C3)cc2F)N1CC1CCCCC1` [Example 207, (1R,3R)-2-(cyclohexylmethyl)-1-[2,6-difluoro-4-[2-[3-(fluoromethyl)azetidin-1-yl]ethoxy]phenyl]-3-methyl-1,3,4,9-tetrahydropyrido[3,4-b]indole] was 13 nM.
Consider `C[C@@H]1Cc2c([nH]c3ccccc23)[C@@H](c2c(F)cc(OCCN3CC(CF)C3)cc2F)N1C(=O)C1COC1` [Example 213, [(1R,3R)-1-[2,6-difluoro-4-[2-[3-(fluoromethyl)azetidin-1-yl]ethoxy]phenyl]-3-methyl-1,3,4,9-tetrahydropyrido[3,4-b]indol-2-yl]-(oxetan-3-yl)methanone], for which the EC50 was 4 nM.
In the case of `CC(C)(F)CN1CCc2c([nH]c3ccccc23)[C@H]1c1c(F)cc(OCCN2CC(CF)C2)cc1F` [Example 236, (IR)-1-[2,6-difluoro-4-[2-[3-(fluoromethyl)azetidin-1-yl]ethoxy]phenyl]-2-(2-fluoro-2-methyl-propyl)-1,3,4,9-tetrahydropyrido[3,4-b]indole], the EC50 amounted to 0.182 nM.
Consider `C[C@@H]1Cc2c([nH]c3ccccc23)[C@@H](c2ccc(OCCN3CC(CF)C3)cc2F)N1S(C)(=O)=O` [Example 232, (1R,3R)-1-[2-fluoro-4-[2-[3-(fluoromethyl)azetidin-1-yl]ethoxy]phenyl]-3-methyl-2-methylsulfonyl-1,3,4,9-tetrahydropyrido[3,4-b]indole], for which the EC50 was found to be 0.192 nM.
With `C[C@@H]1Cc2c([nH]c3ccccc23)[C@@H](c2c(F)cc(OC3CN(CCCF)C3)cc2F)N1CC1(F)CCC1` [Example 393, (1R,3R)-1-(2,6-difluoro-4-((1-(3-fluoropropyl)azetidin-3-yl)oxy)phenyl)-2-((1-fluorocyclobutyl)methyl)-3-methyl-2,3,4,9-tetrahydro-1H-pyrido[3,4-b]indole], the concentration giving a half-maximal response (EC50) turned out to be 0.142 nM.
Turning to `C[C@@H]1Cc2c([nH]c3ccccc23)[C@@H](c2c(F)cc(NCCN3CC(CF)C3)cc2F)N1C[C@](C)(F)CO` [Example 353, (S)-3-((1R,3R)-1-(2,6-difluoro-4-((2-(3-(fluoromethyl)azetidin-1-yl)ethyl)amino)phenyl)-3-methyl-1,3,4,9-tetrahydro-2H-pyrido[3,4-b]indol-2-yl)-2-fluoro-2-methylpropan-1-ol], the half-maximal effective concentration (EC50) is 0.033 nM.
`C[C@@H]1Cc2c([nH]c3ccccc23)[C@@H](c2c(F)cc(OC[C@H](C)N3CCCC3)cc2F)N1CC(C)(C)F` [Example 142, (1R,3R)-1-[2,6-difluoro-4-[(2S)-2-pyrrolidin-1-ylpropoxy]phenyl]-2-(2-fluoro-2-methyl-propyl)-3-methyl-1,3,4,9-tetrahydropyrido[3,4-b]indole]: the EC50 was found to be 0.09 nM.
On to `C[C@H]1Cc2c([nH]c3c(F)cccc23)[C@H](c2c(F)cc(NC3CN(CCCF)C3)cc2F)N1CC(F)(F)F` [Example 409, N-(3,5-difluoro-4-((1S,3S)-8-fluoro-3-methyl-2-(2,2,2-trifluoroethyl)-2,3,4,9-tetrahydro-1H-pyrido[3,4-b]indol-1-yl)phenyl)-1-(3-fluoropropyl)azetidin-3-amine], for which the half-maximal effective concentration (EC50) came out at 26 nM.
As to `C[C@@H]1Cc2c([nH]c3ccccc23)[C@@H](c2c(F)cc(NC3CN(CCCF)C3)cc2F)N1CC(C)(C)F` [Example 145, N-(3,5-difluoro-4-((1R,3R)-2-(2-fluoro-2-methylpropyl)-3-methyl-2,3,4,9-tetrahydro-1H-pyrido[3,4-b]indol-1-yl)phenyl)-1-(3-fluoropropyl)azetidin-3-amine], the 50% effective concentration (EC50) was 0.096 nM.
In the case of `C[C@@H]1Cc2c([nH]c3ccccc23)[C@@H](c2c(F)cc(OC3CN(CC4CCC(F)(F)CC4)C3)cc2F)N1CC(C)(C)F` [Example 217, (1R,3R)-1-[4-[1-[(4,4-difluorocyclohexyl)methyl]azetidin-3-yl]oxy-2,6-difluoro-phenyl]-2-(2-fluoro-2-methyl-propyl)-3-methyl-1,3,4,9-tetrahydropyrido[3,4-b]indole], the concentration giving a half-maximal response (EC50) is 2 nM.
Regarding `C[C@@H]1Cc2c([nH]c3ccc(F)cc23)[C@@H](c2c(F)cc(OC3CN(CCCF)C3)cc2F)N1CC(F)(F)F` [Example 358, (1R,3R)-1-(2,6-difluoro-4-((1-(3-fluoropropyl)azetidin-3-yl)oxy)phenyl)-6-fluoro-3-methyl-2-(2,2,2-trifluoroethyl)-2,3,4,9-tetrahydro-1H-pyrido[3,4-b]indole], the concentration for a half-maximal effect (EC50) amounted to 0.417 nM.
Regarding `C[C@@H]1Cc2c([nH]c3ccccc23)[C@H](c2ccc(OCCN3CC(CF)C3)cc2)N1C(=O)C(C)(C)F` [Example 235, 2-fluoro-1-[(1S,3R)-1-[4-[2-[3-(fluoromethyl)azetidin-1-yl]ethoxy]phenyl]-3-methyl-1,3,4,9-tetrahydropyrido[3,4-b]indol-2-yl]-2-methyl-propan-1-one], the half-maximal effective concentration (EC50) was 24 nM.
